According to patent US20050004172A1, “Solid state forms of 5-(difluoro-methoxy)-2-((3,4-dimethoxy-2-pyridinyl)-methyl) sulfinyl]-1H-benzimidazole sodium aquo complexes” (Pliva-Istrazivacki Institut d.o.o., priority 2003, published 2005):

Assays:
[1] = Solid-state stability under normal storage conditions; assay type: physicochemical; conditions: typically, but not limited to, temperatures of about 20° C. to about 30° C., relative humidity of about 30% to about 60%
[2] = Solid-state form conversion under crushing or compressing; assay type: physicochemical

| Compound | stability under normal storage conditions [1] | conversion into other known solid-state forms of pantoprazole sodium [2] |
| --- | --- | --- |
| COc1ccnc(C[S+]([O-])c2nc3ccc(OC(F)F)cc3[nH]2)c1OC (centres unmarked) [Form A2, 5-(difluoromethoxy)-2-[[(3,4-dimethoxy-2-pyridinyl)methyl]sulfinyl]-1H-benzimidazole] | stable | does not convert |
| COc1ccnc(C[S+]([O-])c2nc3ccc(OC(F)F)cc3[nH]2)c1OC (centres unmarked) [Form A4, 5-(difluoromethoxy)-2-[[(3,4-dimethoxy-2-pyridinyl)methyl]sulfinyl]-1H-benzimidazole] | stable | does not convert |
| COc1ccnc(C[S+]([O-])c2nc3ccc(OC(F)F)cc3[nH]2)c1OC (centres unmarked) [Form A3, 5-(difluoromethoxy)-2-[[(3,4-dimethoxy-2-pyridinyl)methyl]sulfinyl]-1H-benzimidazole] | stable | does not convert |
| COc1ccnc(C[S+]([O-])c2nc3ccc(OC(F)F)cc3[nH]2)c1OC (centres unmarked) [Form A1, 5-(difluoromethoxy)-2-[[(3,4-dimethoxy-2-pyridinyl)methyl]sulfinyl]-1H-benzimidazole] | stable | does not convert |
